Source: ChEMBL document CHEMBL5584343, “Cerastecin Inhibition of the Lipooligosaccharide Transporter MsbA to Combat Acinetobacter baumannii: From Screening Impurity to In Vivo Efficacy” (J Med Chem, 2024)
Converted amounts (≈) assume the structure as drawn.

How the values were obtained:
Acinetobacter baumannii [1] = test: Antibacterial activity against Acinetobacter baumannii CLB21655 infected in female DBA mouse blood stream infection model assessed as reduction in bacterial burden in spleen at 10 mg/kg, sc pre-infected with bacteria for 0.5 hrs followed by thrice daily compound administration and measured after 8 hrs (reference value: 6.3 log10CFU/g); assay type: functional
Acinetobacter baumannii [2] = test: Antibacterial activity against Acinetobacter baumannii CLB21655 infected in female DBA mouse blood stream infection model assessed as reduction in bacterial burden in spleen at 10 mg/kg, sc pre-infected with bacteria for 0.5 hrs followed by once daily compound administration and measured after 8 hrs (reference value: 5.85 log10CFU/g); assay type: functional
Acinetobacter baumannii [3] = test: Antibacterial activity against Acinetobacter baumannii CLB21655 infected in female DBA mouse lung infection model assessed as fold change in colony forming units in lung at 10 mg/kg, sc pre-infected with bacteria for 2 hrs followed by compound administration and measured after 24 hrs relative to control; assay type: functional
Acinetobacter baumannii [4] = test: Antibacterial activity against Acinetobacter baumannii CLB21655 infected in female DBA mouse lung infection model assessed as reduction in bacterial burden in lung at 10 mg/kg, sc pre-infected with bacteria for 2 hrs followed by compound administration and measured after 24 hrs (reference value: 6.3 log10CFU/g); assay type: functional
Acinetobacter baumannii [5] = test: Antibacterial activity against Acinetobacter baumannii CLB21655 infected in female DBA mouse blood stream infection model assessed as fold change in colony forming units in spleen at 10 mg/kg, sc pre-infected with bacteria for 0.5 hrs followed by once daily compound administration and measured after 8 hrs relative to control; assay type: functional
Acinetobacter baumannii [6] = test: Antibacterial activity against Acinetobacter baumannii CLB21655 infected in female DBA mouse blood stream infection model assessed as fold change in colony forming units in spleen at 10 mg/kg, sc pre-infected with bacteria for 0.5 hrs followed by thrice daily compound administration and measured after 8 hrs relative to control; assay type: functional
Acinetobacter baumannii [7] = test: Selectivity ratio of MIC95 for antibacterial activity against Acinetobacter baumannii ATCC19606 in the presence of 1% human serum to MIC95 for antibacterial activity against Acinetobacter baumannii ATCC19606; assay type: functional
[8] = Inhibition of wildtype Acinetobacter baumannii MsbA preincubated for 30 mins followed by ATP addition and measured after 1 hrs by Transcreener ADP2 F1 assay
Acinetobacter baumannii [9] = test: Antibacterial activity against Acinetobacter baumannii ATCC19606 incubated for 18 to 20 hrs in presence of 1% of human serum by microbroth dilution method; assay type: functional; details: time 18-20 hrs
MT4 = test: (§1) Cytotoxicity against GFP fused human MT4 cells cultured under serum free condition for 24 hrs by CellTiter-Glo assay; assay type: toxicity, cell-based; details: mt4, 24 h, time 24 hrs
Acinetobacter baumannii [10] = test: Antibacterial activity against Acinetobacter baumannii ATCC19606 assessed as bacterial growth inhibition incubated for 18 to 20 hrs by microbroth dilution method; assay type: functional; details: time 18-20 hrs
Acinetobacter baumannii [11] = test: Antibacterial activity against Acinetobacter baumannii ATCC 19606 assessed as bacterial growth inhibition incubated overnight by spectrophotometric analysis; assay type: functional
Acinetobacter baumannii [12] = test: Antibacterial activity against Acinetobacter baumannii CLB21655 infected in female DBA mouse lung infection model assessed as fold change in colony forming units in lung at 160 mg/kg, sc pre-infected with bacteria for 2 hrs followed by compound administration and measured after 24 hrs in presence of ceftazidime relative to control; assay type: functional
Acinetobacter baumannii [13] = test: Antibacterial activity against Acinetobacter baumannii CLB21655 infected in female DBA mouse lung infection model assessed as reduction in bacterial burden in lung at 160 mg/kg, sc pre-infected with bacteria for 2 hrs followed by compound administration and measured after 24 hrs in presence of ceftazidime (reference value: 9.7 log10CFU/g); assay type: functional
Acinetobacter baumannii [14] = test: Antibacterial activity against Acinetobacter baumannii clinic isolates; assay type: functional
Acinetobacter baumannii [15] = test: Antibacterial activity against wild type Acinetobacter baumannii; assay type: functional
[16] = Lipophilicity, logD of compound at pH 7 by HPLC analysis; assay type: physicochemical; details: buffer
Acinetobacter baumannii [17] = test: Selectivity ratio of MIC95 for antibacterial activity against Acinetobacter baumannii ATCC19606 in the presence of 10% human serum to MIC95 for antibacterial activity against Acinetobacter baumannii ATCC19606; assay type: functional
[18] = AUC (0 to infinity) in male C57BL/6 mouse at 300 mg/kg, sc measured after 24 hrs by LC-MS/MS analysis; assay type: ADME, organism-based; details: in vivo
[19] = as §1; assay type: toxicity, cell-based; details: GFP fused MT4 cells
Acinetobacter baumannii [20] = test: Antibacterial activity against Acinetobacter baumannii ATCC19606 incubated for 18 to 20 hrs in presence of 10% human serum by microbroth dilution method; assay type: functional; details: time 18-20 hrs
[21] = Cmax in male C57BL/6 mouse at 300 mg/kg, sc measured after 24 hrs by LC-MS/MS analysis; assay type: ADME, organism-based; details: in vivo
[22] = Plasma protein binding in C57BL/6 mouse assessed as free fraction at 1000 to 100000 ng/ml by equilibrium dialysis based LC-MS/MS analysis; assay type: ADME, cell-free; details: dose 1000-100000 ng/ml
[23] = Plasma protein binding in C57BL/6 mouse at 1000 to 100000 ng/ml by equilibrium dialysis based LC-MS/MS analysis; assay type: ADME, cell-free; details: dose 1000-100000 ng/ml, read-out: PPB (converted)
Acinetobacter baumannii [24] = test: Antibacterial activity against Acinetobacter baumannii CLB21655 infected in female DBA mouse blood stream infection model assessed as reduction in bacterial burden in spleen at 200 mg/kg, sc pre-infected with bacteria for 0.5 hrs followed by once daily compound administration and measured after 8 hrs (reference value: 5.85 log10CFU/g); assay type: functional
Acinetobacter baumannii [25] = test: Antibacterial activity against Acinetobacter baumannii CLB21655 infected in female DBA mouse blood stream infection model assessed as fold change in colony forming units in spleen at 100 mg/kg, sc pre-infected with bacteria for 0.5 hrs followed by once daily compound administration and measured after 8 hrs relative to control; assay type: functional
Acinetobacter baumannii [26] = test: Antibacterial activity against Acinetobacter baumannii CLB21655 infected in female DBA mouse blood stream infection model assessed as reduction in bacterial burden in spleen at 300 mg/kg, sc pre-infected with bacteria for 0.5 hrs followed by thrice daily compound administration and measured after 8 hrs (reference value: 6.3 log10CFU/g); assay type: functional
Acinetobacter baumannii [27] = test: Antibacterial activity against Acinetobacter baumannii CLB21655 infected in female DBA mouse blood stream infection model assessed as fold change in colony forming units in spleen at 300 mg/kg, sc pre-infected with bacteria for 0.5 hrs followed by once daily compound administration and measured after 8 hrs relative to control; assay type: functional
Acinetobacter baumannii [28] = test: Antibacterial activity against Acinetobacter baumannii CLB21655 infected in female DBA mouse blood stream infection model assessed as fold change in colony forming units in spleen at 200 mg/kg, sc pre-infected with bacteria for 0.5 hrs followed by once daily compound administration and measured after 8 hrs relative to control; assay type: functional
Acinetobacter baumannii [29] = test: Antibacterial activity against Acinetobacter baumannii CLB21655 infected in female DBA mouse lung infection model assessed as reduction in bacterial burden in lung at 300 mg/kg, sc pre-infected with bacteria for 2 hrs followed by once daily compound administration and measured after 24 hrs (reference value: 9.7 log10CFU/g); assay type: functional
Acinetobacter baumannii [30] = test: Antibacterial activity against Acinetobacter baumannii CLB21655 infected in female DBA mouse lung infection model assessed as fold change in colony forming units in lung at 300 mg/kg, sc pre-infected with bacteria for 2 hrs followed by thrice daily compound administration with 3 hrs interval and measured after 24 hrs relative to control; assay type: functional
Acinetobacter baumannii [31] = test: Antibacterial activity against Acinetobacter baumannii CLB21655 infected in female DBA mouse blood stream infection model assessed as reduction in bacterial burden in spleen at 300 mg/kg, sc pre-infected with bacteria for 0.5 hrs followed by once daily compound administration and measured after 8 hrs (reference value: 6.5 log10CFU/g); assay type: functional
Acinetobacter baumannii [32] = test: Antibacterial activity against Acinetobacter baumannii CLB21655 infected in female DBA mouse lung infection model assessed as fold change in colony forming units in lung at 300 mg/kg, sc pre-infected with bacteria for 2 hrs followed by once daily compound administration and measured after 24 hrs relative to control; assay type: functional
Acinetobacter baumannii [33] = test: Antibacterial activity against Acinetobacter baumannii CLB21655 infected in female DBA mouse blood stream infection model assessed as reduction in bacterial burden in spleen at 200 mg/kg, sc pre-infected with bacteria for 0.5 hrs followed by once daily compound administration and measured after 8 hrs (reference value: 6.5 log10CFU/g); assay type: functional
Acinetobacter baumannii [34] = test: Antibacterial activity against Acinetobacter baumannii CLB21655 infected in female DBA mouse lung infection model assessed as reduction in bacterial burden in lung at 300 mg/kg, sc pre-infected with bacteria for 2 hrs followed by thrice daily compound administration with 3 hrs interval and measured after 24 hrs (reference value: 9.7 log10CFU/g); assay type: functional
Acinetobacter baumannii [35] = test: Antibacterial activity against Acinetobacter baumannii CLB21655 infected in female DBA mouse blood stream infection model assessed as reduction in bacterial burden in spleen at 100 mg/kg, sc pre-infected with bacteria for 0.5 hrs followed by once daily compound administration and measured after 8 hrs (reference value: 6.5 log10CFU/g); assay type: functional
Acinetobacter baumannii [36] = test: Antibacterial activity against Acinetobacter baumannii ATCC19606 incubated for 18 to 20 hrs in presence of 50% mouse serum by microbroth dilution method; assay type: functional; details: time 18-20 hrs
Acinetobacter baumannii [37] = test: Antibacterial activity against Acinetobacter baumannii CLB21655 infected in female DBA mouse lung infection model assessed as fold change in colony forming units in lung at 640 mg/kg, sc pre-infected with bacteria for 2 hrs followed by compound administration and measured after 24 hrs in presence of avibactam relative to control; assay type: functional
Acinetobacter baumannii [38] = test: Antibacterial activity against Acinetobacter baumannii CLB21655 infected in female DBA mouse lung infection model assessed as reduction in bacterial burden in lung at 640 mg/kg, sc pre-infected with bacteria for 2 hrs followed by compound administration and measured after 24 hrs in presence of avibactam (reference value: 9.7 log10CFU/g); assay type: functional

SMILES: CN(C)c1cc(NC(=O)CNC(C)(C)C)c(O)c2c1C[C@H]1C[C@H]3[C@H](N(C)C)C(O)=C(C(N)=O)C(=O)[C@@]3(O)C(O)=C1C2=O [TIGECYCLINE]
- Activity (Acinetobacter baumannii [1]): 3.5 log10CFU/g
- Activity (Acinetobacter baumannii [2]): 2.85 log10CFU/g
- fold change (FC) (Acinetobacter baumannii [3]): 2.8
- Activity (Acinetobacter baumannii [4]): 3.5 log10CFU/g
- fold change (FC) (Acinetobacter baumannii [5]): 3
- fold change (FC) (Acinetobacter baumannii [6]): 2.8

SMILES: O=C(CCCOc1ccc(NS(=O)(=O)CCc2ccc(F)cc2)c(C(=O)O)c1)Nc1ccc(NS(=O)(=O)CCc2ccc(F)cc2)c(C(=O)O)c1
- Selectivity ratio (Acinetobacter baumannii [7]): 8
- EC50 [8]: 1140 nM
- MIC95 (Acinetobacter baumannii [9]): 25 µM
- Activity (MT4): Non-Toxic
- MIC95 (Acinetobacter baumannii [10]): 3.12 µM (≈ 2.33 µg/mL)

SMILES: CCCCc1ccc(S(=O)(=O)Nc2ccc(NC(=O)N3CCOCC3)cc2C(=O)O)cc1
- MIC (Acinetobacter baumannii [11]): ≤ 12.5 µM

SMILES: NC(=O)[C@@H]1CC[C@@H]2CN1C(=O)N2OS(=O)(=O)O [AVIBACTAM]
- fold change (FC) (Acinetobacter baumannii [12]): 2.1
- Activity (Acinetobacter baumannii [13]): 7.6 log10CFU/g

SMILES: CN1C(=O)[C@H](CCCCN)NC(=O)[C@H](CCCN)NCc2cccnc2Sc2cccc(-c3ccc(C(=O)O)cc3)c2CNC(=O)[C@@H]1Cc1c[nH]c2ccccc12 [ZOSURABALPIN]
- MIC (Acinetobacter baumannii [14]): 0.12 µg/mL (≈ 0.152 µM)
- MIC (Acinetobacter baumannii [15]): 0.3 µM (≈ 0.237 µg/mL)

SMILES: O=C(O)c1cc(CN2CC(Oc3ccc(NS(=O)(=O)c4ccc(-c5ccc(F)cc5)s4)c(C(=O)O)c3)C2)ccc1NS(=O)(=O)c1cnn(-c2ccc(F)cc2)c1
- logD [16]: 1.8
- EC50 [8]: 7.3 nM
- Selectivity ratio (Acinetobacter baumannii [17]): 260
- AUC [18]: 7970 µM·h
- EC50 at 24 h [19]: > 42000 nM
- MIC95 (Acinetobacter baumannii [10]): 0.024 µM (≈ 0.0197 µg/mL)
- MIC95 (Acinetobacter baumannii [20]): 6.25 µM
- Cmax [21]: 502 µM
- Fu [22]: 0.6%

SMILES: CCCCc1ccc(S(=O)(=O)Nc2ccc(NC(=O)CCC(=O)Nc3ccc(NS(=O)(=O)c4ccc(CCCC)cc4)c(C(=O)O)c3)cc2C(=O)O)cc1
- fraction unbound [23]: < 0.001
- logD [16]: 2.1
- Selectivity ratio (Acinetobacter baumannii [7]): 202
- EC50 [8]: 49 nM
- Activity (Acinetobacter baumannii [24]): 6.04 log10CFU/g
- MIC95 (Acinetobacter baumannii [9]): 11.5 µM
- EC50 at 24 h [19]: > 42000 nM
- MIC95 (Acinetobacter baumannii [10]): 0.057 µM (≈ 0.0444 µg/mL)

SMILES: O=C(CCCOc1ccc(NS(=O)(=O)c2cnn(-c3ccc(F)cc3)c2)c(C(=O)O)c1)Nc1ccc(NS(=O)(=O)c2cnn(-c3ccc(F)cc3)c2)c(C(=O)O)c1
- fraction unbound [23]: 0.004
- fold change (FC) (Acinetobacter baumannii [25]): 0.63
- Activity (Acinetobacter baumannii [26]): 4.4 log10CFU/g
- fold change (FC) (Acinetobacter baumannii [27]): 0.36
- fold change (FC) (Acinetobacter baumannii [28]): 0
- Activity (Acinetobacter baumannii [29]): 8.8 log10CFU/g
- Selectivity ratio (Acinetobacter baumannii [7]): 7.3
- EC50 [8]: 50 nM
- fold change (FC) (Acinetobacter baumannii [30]): 1.4
- Activity (Acinetobacter baumannii [31]): 6.2 log10CFU/g
- fold change (FC) (Acinetobacter baumannii [32]): 0.9
- MIC95 (Acinetobacter baumannii [9]): 2.03 µM
- Activity (Acinetobacter baumannii [33]): 6.5 log10CFU/g
- Activity (Acinetobacter baumannii [34]): 8.3 log10CFU/g
- fold change (FC) (Acinetobacter baumannii [6]): 1.9
- EC50 at 24 h [19]: > 42000 nM
- MIC95 (Acinetobacter baumannii [10]): 0.277 µM (≈ 0.228 µg/mL)
- Activity (Acinetobacter baumannii [35]): 5.9 log10CFU/g
- MIC95 (Acinetobacter baumannii [36]): 50 µM

SMILES: CC(C)(O/N=C(\C(=O)N[C@@H]1C(=O)N2C(C(=O)[O-])=C(C[n+]3ccccc3)CS[C@H]12)c1csc(N)n1)C(=O)O [CEFTAZIDIME]
- fold change (FC) (Acinetobacter baumannii [37]): 2.1
- Activity (Acinetobacter baumannii [38]): 7.6 log10CFU/g
